From ChEMBL document CHEMBL4330132, “5-Keto-3-cyano-2,4-diaminothiophenes as selective maternal embryonic leucine zipper kinase inhibitors” (Bioorg Med Chem Lett, 2019) come the findings set out here.

As a reminder, the IC50 is the point on the concentration scale where inhibition reaches its midpoint. A word on the inhibition: it is the share of the control response that was lost under treatment. As usually defined, the logP is the decadic logarithm of the partition coefficient of the neutral form, usually between octanol and water.

Converted amounts (≈) assume the structure as drawn. Where only a bound is given, the exact number is not on record here.

Series [1] deals with T1, Maternal embryonic leucine zipper kinase (Homo sapiens, UniProt Q14680). Nature of the series: Inhibition of recombinant human MELK expressed in Escherichia coli using ZIPtide as substrate measured after 0.5 hrs by ADP-Glo assay.
Target sequence in this assay (Q14680 whole entry): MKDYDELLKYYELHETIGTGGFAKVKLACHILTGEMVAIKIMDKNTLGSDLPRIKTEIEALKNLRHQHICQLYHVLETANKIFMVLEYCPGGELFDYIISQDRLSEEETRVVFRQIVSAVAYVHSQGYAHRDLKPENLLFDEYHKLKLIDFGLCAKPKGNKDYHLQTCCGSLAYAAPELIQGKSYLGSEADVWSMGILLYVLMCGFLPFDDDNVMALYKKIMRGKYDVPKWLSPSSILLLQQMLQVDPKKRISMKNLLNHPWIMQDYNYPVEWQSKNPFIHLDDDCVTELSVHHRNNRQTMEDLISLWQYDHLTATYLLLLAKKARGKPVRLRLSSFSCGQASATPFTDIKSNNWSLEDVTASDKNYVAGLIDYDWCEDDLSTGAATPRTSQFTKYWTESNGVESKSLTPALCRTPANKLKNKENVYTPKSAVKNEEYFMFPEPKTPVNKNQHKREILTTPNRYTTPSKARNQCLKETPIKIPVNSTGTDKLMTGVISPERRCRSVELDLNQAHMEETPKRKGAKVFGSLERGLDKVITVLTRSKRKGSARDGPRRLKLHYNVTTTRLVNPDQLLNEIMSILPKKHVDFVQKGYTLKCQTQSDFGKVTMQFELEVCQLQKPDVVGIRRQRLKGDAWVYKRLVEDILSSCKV
The target of series [2] is T1, Maternal embryonic leucine zipper kinase. Nature of the series: Inhibition of recombinant human MELK expressed in Escherichia coli at 5 uM using ZIPtide as substrate measured after 0.5 hrs by ADP-Glo assay relative to control.
Target sequence in this assay (Q14680 whole entry, looked up): as the sequence (Q14680 whole entry) above
Series [3] is described as follows: Lipophilicity, log P of the compound. As to conditions: octanol/water. The series is classed as physicochemical.
Series [4] is described as follows: Kinetic solubility of the compound in pH 7.4 phosphate buffer. In kind it is physicochemical. As to conditions: read-out: Kinetic_solubility.
Series [5] can be described thus: Stability in mouse liver microsomes assessed as parent compound remaining after 1 hr. The note with it: read-out: Stability. The series is classed as ADME, Microsome. For orientation: Liver microsomes are vesicles of endoplasmic reticulum, rich in cytochrome P450 enzymes.

As for `CC(C)Nc1sc(C(=O)c2ccc(-c3ccncc3)s2)c(N)c1C#N`, the IC50 in series [1] worked out at 269 nM.
On the same count and under the same terms, the value for `CC(C)Nc1sc(C(=O)c2cc(Cl)cs2)c(N)c1C#N` was 575 nM; that for `CC(C)Nc1sc(C(=O)c2ccncc2)c(N)c1C#N` was over 5000 nM; that for `CCNc1sc(C(=O)c2ccc(Cl)s2)c(N)c1C#N` was 222 nM.
As for `Cc1ccc(C(=O)c2sc(NC(C)C)c(C#N)c2N)cc1`, the inhibition in series [2] worked out at 49%.
On to `CC(C)Nc1sc(C(=O)c2cccc(C#N)c2)c(N)c1C#N`, for which the IC50 in series [1] is over 5000 nM.
Same read-out and setting: to `N#Cc1c(NCc2ccccc2)sc(C(=O)c2ccc(Cl)s2)c1N` belongs over 5000 nM; to `COc1ccc(C(=O)c2sc(NC(C)C)c(C#N)c2N)cc1`, 4130 nM.
As to `CC(C)Nc1sc(C(=O)c2cccnc2)c(N)c1C#N`, the IC50 in series [1] was over 5000 nM.
On the same count and under the same terms, to `CC(C)Nc1sc(C(=O)c2ccc(-c3cccc(O)c3)s2)c(N)c1C#N` belongs 350 nM; to `CC(C)Nc1sc(C(=O)c2ccc3c(c2)OCO3)c(N)c1C#N`, 1120 nM; to `CC(C)Nc1sc(C(=O)c2ccc(-c3ccc(O)cc3)s2)c(N)c1C#N`, 241 nM.
On the same count and under the same terms, to `N#Cc1c(Nc2ccccc2F)sc(C(=O)c2ccc(Cl)s2)c1N` belongs 707 nM; to `CC(C)Nc1sc(C(=O)c2ccc(I)s2)c(N)c1C#N`, 112 nM.
`N#Cc1c(NCCN2CCNCC2)sc(C(=O)c2ccc(Br)s2)c1N`: the IC50 in series [1] was 98 nM. This molecule had a logP in series [3] of 3. The solubility kinetic in series [4] turned out to be 189 µg/mL (≈ 429 µM). The remaining at 1 h in series [5] was found to be 81%.
For the molecule `CC(C)Nc1sc(C(=O)c2ccc(Br)s2)c(N)c1C#N`, the IC50 in series [1] was determined as 122 nM.
In the case of `CC(C)Nc1sc(C(=O)c2ccccc2)c(N)c1C#N`, the inhibition in series [2] is 47%.
With `CC(C)Nc1sc(C(=O)c2ccc(Cl)s2)cc1C#N`, in series [1], the IC50 is over 5000 nM.
For `N#Cc1ccccc1Nc1sc(C(=O)c2ccc(Br)s2)c(N)c1C#N`, the concentration for half-maximal inhibition (IC50) in series [1] was over 5000 nM.
The same measure, in the same setting: to `N#Cc1c(NCCCN)sc(C(=O)c2ccc(Br)s2)c1N` belongs 141 nM.
With `CC(C)Nc1nc(N)c(C(=O)c2ccc(Cl)s2)s1`, in series [1], the concentration for half-maximal inhibition (IC50) is over 5000 nM. Moreover, the inhibition in series [2] came to 46%.
In the case of `CC(C)Nc1sc(C(=O)c2ccco2)c(N)c1C#N`, the IC50 in series [1] was 1350 nM.
`Cc1ccc(C(=O)c2sc(NC(C)C)c(C#N)c2N)s1`: the IC50 in series [1] was 494 nM.
Still for that read-out and setting: to `COc1ccc(C(=O)c2sc3nc(C)ccc3c2N)cc1OC` belongs over 5000 nM.
In the case of `Cc1ccc(C(=O)c2sc3nc(C)ccc3c2N)cc1`, the IC50 in series [1] was over 5000 nM.
On the same count and under the same terms, the value for `C=CCNc1sc(C(=O)C(C)(C)C)c(N)c1C#N` was over 5000 nM; that for `N#Cc1c(NCC(N)=O)sc(C(=O)c2ccc(Br)s2)c1N` was 540 nM; that for `CC(C)Nc1sc(C(=O)c2ccn[nH]2)c(N)c1C#N` was 1700 nM.
On to `CC(=O)c1sc(NC(C)C)c(C#N)c1N`, for which, in series [1], the IC50 was over 5000 nM.
Consider `N#Cc1c(NCCO)sc(C(=O)c2ccc(Br)s2)c1N`, for which, in series [1], the half-inhibitory concentration (IC50) is 313 nM.
Still for that read-out and setting: the value for `CCNc1sc(C(=O)c2cccs2)c(N)c1C#N` was 1190 nM; that for `CC(C)Nc1sc(C(=O)c2cc(Br)cs2)c(N)c1C#N` was 599 nM; that for `CC(C)Nc1sc(C(=O)c2ccc(C#N)cc2)c(N)c1C#N` was over 5000 nM.
As to `CC(C)Nc1sc(C(=O)c2ccc(Cl)s2)c(N)c1C(N)=O`, in series [1], the IC50 came out at 388 nM.
Same read-out and setting: to `C=CCNc1sc(C(=O)c2ccc(Cl)s2)c(N)c1C#N` belongs 638 nM.
On to `COc1ccc(C(=O)c2sc(NC(C)C)c(C#N)c2N)cc1OC`, for which the IC50 in series [1] was 1770 nM.
`CC(C)N(C)c1sc(C(=O)c2ccc(Cl)s2)c(N)c1C#N`: the IC50 in series [1] is 1420 nM.
